# Data as given in patent US12398102B2, “Formulation for soft anticholinergic analogs” (BODOR LABORATORIES, INC., priority 2014, dated 2025).
# Columns and labels:
# [1] = Stability of approximately 2% BBI-4000 in four solvent systems (HPLC); type: physicochemical; conditions: for BBI-4000 Assay, Change from Baseline (40° C./75%), reduction: Day 7
# Procedure: Various formulations of approximately 2% BBI-4000 were made and their stabilities assessed. The solvent systems were as follows: • (a) solvent content: 100% water; • (b) solvent content: 60% water/40% ethanol; • (c) solvent content: 30% water/70% ethanol; • (d) solvent content: 100% ethanol. Each sample was assessed at baseline; after 7 days at 25° C./60% humidity; and after 7 days at 40° C./75% humidity. The percentage change from baseline for 40° C. after 7 days was calculated in each case. HPLC analysis was conducted as described in EXAMPLE 2 below.
# There is clearly a dramatic difference in the stability of the anhydrous ethanol formulation compared to the water-containing formulations.
# [2] = HPLC assay and impurities of aqueous BBI-4000 gel formulations at differing pH; type: physicochemical; conditions: Day 7
# Procedure: The standards were prepared in duplicate by weighing 2.0±0.1 mg of BBI-4000 into 1 mL volumetric flasks. Dissolved and diluted to volume with acetonitrile and mixed by inversion.
# Gel samples were prepared in duplicate at a target concentration of 2 mg/ml in a 5-mL volumetric flask. Added 1.5 ml H2O and mixed to disperse the sample. Diluted to volume with acetonitrile and filtered an aliquot through a syringe filter.
# The liquid chromatographic system was set-up as follows: • HPLC Column: XBridge Shield RP18, 4.6×150 mm, 3.5 μm • Column Temp.: 25±1° C. • Sample Temp.: ambient • Flow Rate: 1.5 mL/min • Injection Volume: 10 μL • UV Detection: 220 nm • Run Time: 20 minutes
# [3] = Toxicokinetics (PK samples) in the 14-day Göttingen Minipig study; type: in vivo, Göttingen Minipigs
# Procedure: (§1) All groups received 2 mL of gel formulation, once a day, for 14 consecutive days, applied to approximately 10% of their body surface area on their back.
# (§2) The study included daily observations of the site of application and scoring of erythema and edema (if present), daily general examinations including heart rate as well as pupil size assessments at days 1, 2, 3, 5, 7, 10 and 14. The frequent observations of heart rate and pupil size were intended to identify any potential systemic anticholinergic effect. Main organs were evaluated during necropsy and histopathology evaluation was completed for treated and untreated skin. Blood samples for chemistry and hematology analysis were collected as well as PK samples.
# [4] = test system: subjects with axillary hyperhidrosis; experiment: Study BBI-4000-CL-101: efficacy, gravimetric sweat production and HDSS; type: in vivo, human
# Procedure: Efficacy was assessed by the change in gravimetrically measured sweat production and the change in hyperhidrosis disease severity scale (HDSS) from baseline to Day 15 (end of therapy).
# For the gravimetric assessment, sweat production was measured by placing filter paper (pre-weighed) on the axilla for 5 minutes while the subject was in a semi-reclining position at room temperature. The filter paper was covered with plastic during exposure to the axilla, and was then weighed following the 5-minute exposure period to calculate the amount of sweat produced.
# For the HDSS, subjects rated the severity of their hyperhidrosis on a 4-point scale (1,2, 3, or 4) based on the level of interference with their daily activities.
# [5] = test system: Göttingen Minipigs; experiment: 14-day dermal and systemic toxicity study in Göttingen Minipigs; conditions: anhydrous composition, 14 days, dermal
# Procedure: as §1, §2
# The estimated BBI-4000 dose applied to the skin in this study was 40 mg/kg/day for Group 3 and 20 mg/kg/day for Group 2.
# [6] = solvent 100% ethanol, Day 7 @ 25° C./60%
smiles,measurement,setting,value
"CCOC(=O)C[N@+]1(C)CCC(OC(=O)[C@](O)(c2ccccc2)C2CCCC2)C1.[Br-] (stereo partly drawn) [BBI-4000, (2R,3′R) 3-(2-cyclopentyl-2-phenyl-2-hydroxyacetoxy)-1-(ethoxycarbonylmethyl)-1-methylpyrrolidinium bromide]",Stability in words: baseline amount of BBI-4000 retained,"[1]; 100% ethanol (absolute or anhydrous), 7 days at 40° C.",essentially maintained the baseline amount of BBI-4000
same,"BBI-4000 Assay, Change from Baseline (40° C./75%), reduction","[1]; solvent 30% water, 70% ethanol",reduction 5%
same,BBI-4000 Main Hydrolysis Products (RRT-0.79-0.84),"[1]; solvent 30% water, 70% ethanol, Day 7 @ 25° C./60%",0.84%
same,BBI-4000 Main Hydrolysis Products (RRT-0.79-0.84),"[1]; solvent 30% water, 70% ethanol, Day 7 @ 40° C./75%",3.50%
same,BBI-4000 Main Hydrolysis Products (RRT-0.79-0.84),"[1]; solvent 30% water, 70% ethanol, baseline",0
same,"BBI-4000 Assay, Change from Baseline (40° C./75%), reduction","[1]; solvent 60% water, 40% ethanol",reduction 5%
same,BBI-4000 Main Hydrolysis Products (RRT-0.79-0.84),"[1]; solvent 60% water, 40% ethanol, Day 7 @ 25° C./60%",0.83%
same,BBI-4000 Main Hydrolysis Products (RRT-0.79-0.84),"[1]; solvent 60% water, 40% ethanol, Day 7 @ 40° C./75%",3.40%
same,BBI-4000 Main Hydrolysis Products (RRT-0.79-0.84),"[1]; solvent 60% water, 40% ethanol, baseline",0
same,"BBI-4000 Assay, Change from Baseline (40° C./75%), reduction",[1]; solvent 100% ethanol,reduction <1%
same,BBI-4000 Assay,[1]; [6],2%
same,BBI-4000 Main Hydrolysis Products (RRT-0.79-0.84),[1]; [6],0
same,BBI-4000 Main Hydrolysis Products (RRT-0.79-0.84),"[1]; solvent 100% ethanol, Day 7 @ 40° C./75%",0
same,BBI-4000 Main Hydrolysis Products (RRT-0.79-0.84),"[1]; solvent 100% ethanol, baseline",0
same,"BBI-4000 Assay, Change from Baseline (40° C./75%), reduction",[1]; solvent 100% water,reduction 9.5%
same,BBI-4000 Main Hydrolysis Products (RRT-0.79-0.84),"[1]; solvent 100% water, Day 7 @ 25° C./60%",1.90%
same,BBI-4000 Assay,"[1]; solvent 100% water, Day 7 @ 40° C./75%",1.80%
same,BBI-4000 Main Hydrolysis Products (RRT-0.79-0.84),"[1]; solvent 100% water, baseline",0
same,"Stability of the aqueous formulation system, in words",[2],lack of stability of this formulation system
same,Time at which the highest concentration was observed,"[3]; after Day-14 dosing, minipig receiving 20% BBI-4000",2 h
same,Systemic exposure (PK analysis),"[3]; dermal 10% and 20% gel, 14 days","variable, dose related systemic exposure"
same,Comparison of 10% gel and 5% gel (sweat reduction and HDSS improvement),"[4]; Cohort 2, small sample size, no definitive conclusion",BBI-4000 10% gel performed better than BBI-4000 5% gel
same,Subjects reporting a >2-point improvement in HDSS,"[4]; Day 15, 5% and 10% gel aggregated (8 of 12)",67%
same,Proportion of subjects with at least a 50% reduction in sweat production,"[4]; Day 15, 5% and 10% gel aggregated (9 of 12)",75%
same,Histopathology analysis of treated skin,[5],unremarkable and identical to non-treated and vehicle treated skin
